Data taken from patent US11572341B2, “Biguanide compound and use thereof” (ImmunoMet Therapeutics Inc., priority 2014, dated 2023).

How the values were obtained:
AMPKa [pT172] = test: AMPKa activation [pT172] in MCF7 cell; type: cell-based
HCT116 cells = test: Inhibitory effect against cancer cell proliferation (MTT); type: cell-based, human; settings: Homo sapiens, HCT-116; HCT116, MTT, 48 hours; read-out: IC50 (uM) @ HCT116
Protocol: The formazane crystals thus formed were dissolved using dimethyl sulfoxide (DMSO) and absorbance of the solution was measured at 560 nm. After culturing for 48 hours, […] synthesized in Examples was indicated as cell viability (%) according to each treated concentration.

SMILES	AMPKa activation [pT172] (Unit/ml) @ MCF7 cell (AMPKa [pT172]; 5 uM)	AMPKa activation [pT172] (Unit/ml) @ MCF7 cell (AMPKa [pT172]; 10 uM)	AMPKa activation [pT172] (Unit/ml) @ MCF7 cell (AMPKa [pT172]; 50 uM)	IC50 (HCT116 cells)
CCCN(CCC)C(=N)NC(=N)N(CCC)CCC.Cl [Example 16, N1,N1-dipropyl-N5N-dipropyl Biguanide Hydrochloride]	7.0 Unit/ml	9.4 Unit/ml	13.6 Unit/ml	45.9 µM
CC1CC(=O)N=C(NC(=N)N2CCCCC2)N1.Cl (stereo not shown) [Example 154, N-(6-methyl-4-oxo-1,4,5-tetrahydropyrimidin-2-yl)piperidin-1-carboximidamide Hydrochloride]	2.9 Unit/ml	2.9 Unit/ml	2.8 Unit/ml	> 100 µM
COC1CCN(C(=N)NC(=N)N2CCCC(C)C2)CC1.Cl (stereo not shown) [Example 45, N1-(3-methyl)piperidin-N5-(4-methoxy)piperidine Biguanide Hydrochloride]	3.0 Unit/ml	4.0 Unit/ml	3.5 Unit/ml	> 100 µM
CN(C(=N)NC(=N)N)C1CCCCC1.Cl [Example 135, N1-methyl-N1-cyclohexyl Biguanide Hydrochloride]	–	–	4.2 Unit/ml	> 100 µM
CC1CCN(C(=N)NC(=N)Nc2ccc(CCN)cc2)CC1.Cl [Example 69, N1-(4-methyl)piperidin-N5-(4-aminoethyl)phenyl Biguanide Hydrochloride]	5.6 Unit/ml	4.7 Unit/ml	5.3 Unit/ml	> 100 µM
CN1CCN(C(=N)NC(=N)Nc2cccc(F)c2)CC1.Cl [Example 28, N1-(4-methyl)piperazin-N5-(3-fluoro)phenyl Biguanide Hydrochloride]	7.7 Unit/ml	9.2 Unit/ml	7.9 Unit/ml	> 100 µM
CN1CCN(C(=N)NC(=N)Nc2cccc(OC(F)(F)F)c2)CC1.Cl [Example 22, N1-(4-methyl)piperazin-N5-(3-trifluoromethoxy)phenyl Biguanide Hydrochloride]	3.8 Unit/ml	10.1 Unit/ml	22.3 Unit/ml	35.2 µM
Cl.N=C(NC(=N)N1CCCC1)Nc1cc(C(F)(F)F)ccc1Cl [Example 76, N1-pyrrolidin-N5-(2-chloro-5-trifluoromethyl)phenyl Biguanide Hydrochloride]	4.5 Unit/ml	4.7 Unit/ml	8.8 Unit/ml	42.1 µM
CC/N=C(\NCc1ccc2c(c1)OCO2)NC(=N)N.Cl [Example 100, N1-(benzo[d][1,3]dioxol-5-yl)methyl-N2-ethyl Biguanide Hydrochloride]	7.1 Unit/ml	9.0 Unit/ml	8.0 Unit/ml	> 100 µM
CC(C)NC(=N)NC(=N)Nc1ccc(Cl)cc1.Cl [Example 17, N1-isopropyl-N5-(4-chloro)phenyl Biguanide Hydrochloride]	10.2 Unit/ml	10.8 Unit/ml	55.7 Unit/ml	35.1 µM
Cl.N=C(NCc1ccccc1Cl)NC(=N)N1CCCCC1 [Example 12, N1-piperidin-N5-(2-chloro)benzyl Biguanide Hydrochloride]	–	–	3.1 Unit/ml	> 100 µM
CC1CCN(C(=N)NC(=N)NCc2ccc(C(F)(F)F)cc2)CC1.Cl [Example 61, N1 (4-methyl)piperidin-N5-(4-trifluoromethyl)benzyl Biguanide Hydrochloride]	6.4 Unit/ml	11.8 Unit/ml	12.3 Unit/ml	12.6 µM
CC1CCN(C(=N)NC(=N)Nc2ccc(C(F)(F)F)cc2)CC1.Cl [Example 53, N1-(4-methyl)piperidin-N5-(4-trifluoromethyl)phenyl Biguanide Hydrochloride]	9.2 Unit/ml	13.9 Unit/ml	cell death	6.1 µM
Cl.N=C(N)NC(=N)NCc1ccccc1 [Example 124, N1-benzyl Biguanide Hydrochloride]	–	–	8.4 Unit/ml	56.7 µM
CN1CCN(C(=N)NC(=N)Nc2ccc(C(F)(F)F)cc2)CC1.Cl [Example 19, N1-(4-methyl)piperazin-N5-(4-trifluoromethyl)phenyl Biguanide Hydrochloride]	3.3 Unit/ml	4.3 Unit/ml	15.3 Unit/ml	41.7 µM
CN1CCN(C(=N)NC(=N)Nc2ccc(F)cc2)CC1.Cl [Example 33, N1-(4-methyl)piperazin-N5-(4-fluoro)phenyl Biguanide Hydrochloride]	3.8 Unit/ml	3.3 Unit/ml	4.3 Unit/ml	> 100 µM
CC1CNC(NC(=N)N2CCCCC2)=NC1=O.Cl (stereo not shown) [Example 155, N-(5-methyl-4-oxo-1,4,5,6-tetrahydropyrimidin-2-yl)piperidin-1-carboximidamide Hydrochloride]	3.3 Unit/ml	2.8 Unit/ml	3.9 Unit/ml	> 100 µM
CCCCNC(=N)NC(=N)N1CCN(C)CC1.Cl [Example 36, N1-(4-methy)piperazin-N5-butyl Biguanide Hydrochloride]	5.5 Unit/ml	5.8 Unit/ml	4.8 Unit/ml	> 100 µM
Cl.N=C(NC(=N)N1CCCCC1)Nc1ccc(N2CCOCC2)cc1 [Example 71, N1-piperidin-N5-(4-morpholin-4-yl)phenyl Biguanide Hydrochloride]	3.8 Unit/ml	4.3 Unit/ml	5.8 Unit/ml	> 100 µM
CC1CCCN(C(=N)NC(=N)Nc2cnccn2)C1.Cl (stereo not shown) [Example 47, N1-(3-methyl)piperidin-N5-pyrazin-2-yl Biguanide Hydrochloride]	2.8 Unit/ml	3.8 Unit/ml	5.3 Unit/ml	130 µM
CN1CCN(C(=N)NC(=N)Nc2cc(F)c(F)c(F)c2)CC1.Cl [Example 40, N1-(4-methyl)piperazin-N5-(3,4,5-trifluoro)phenyl Biguanide Hydrochloride]	7.0 Unit/ml	5.1 Unit/ml	7.2 Unit/ml	> 100 µM
CC/N=C(\NCCc1ccc2c(c1)OCO2)NC(=N)N.Cl [Example 101, N1-2-(benzo[d][1,3]dioxol-5-yl)ethyl-N2-ethyl Biguanide Hydrochloride]	4.1 Unit/ml	3.6 Unit/ml	5.9 Unit/ml	> 100 µM
CN1CCN(C(=N)NC(=N)Nc2cccc(C(F)(F)F)c2)CC1.Cl [Example 21, N1-(4-methyl)piperazin-N5-(3-trifluoromethyl)phenyl Biguanide Hydrochloride]	6.0 Unit/ml	5.8 Unit/ml	14.8 Unit/ml	43.2 µM
C=CCNC(=N)NC(=N)N.Cl [Example 111, N1-(2-prophene) Biguanide Hydrochloride]	11.4 Unit/ml	12.1 Unit/ml	30.2 Unit/ml	35.7 µM
CN1CCN(C(=N)NC(=N)NCc2ccccc2Cl)CC1.Cl [Example 32, N1-(4-methyl)piperazin-N5-(2-chloro)benzyl Biguanide Hydrochloride]	5.5 Unit/ml	5.2 Unit/ml	5.3 Unit/ml	> 100 µM
